The NIST ThermoML archive (doi:10.1021/je301344y)
Numbers after ± are expanded uncertainties.

Conditions: Fluid (supercritical or subcritical phases), Pulse-echo method

C=CC [propene]
Conditions | speed of sound [m/s]
320 K, 5106.4 kPa | 632.55 ± 2.8
320 K, 6107.1 kPa | 653.68 ± 2.7
320 K, 7107.8 kPa | 673.35 ± 2.6
320 K, 8108.4 kPa | 691.81 ± 2.5
320 K, 9108.4 kPa | 709.24 ± 2.5
320 K, 10109 kPa | 725.77 ± 1.3
320 K, 12611 kPa | 763.9 ± 1.2
320 K, 15112 kPa | 798.37 ± 1.2
320 K, 17614 kPa | 829.99 ± 1.2
320 K, 20116 kPa | 859.32 ± 1.1
320 K, 25119 kPa | 912.52 ± 1.1
320 K, 30123 kPa | 960.18 ± 1.1
320 K, 35126 kPa | 1003.6 ± 1
320 K, 40130 kPa | 1043.6 ± 1
320 K, 45133 kPa | 1080.8 ± 1
320 K, 50136 kPa | 1115.7 ± 0.98
320 K, 60143 kPa | 1179.8 ± 1
320 K, 70150 kPa | 1237.9 ± 0.99
320 K, 80157 kPa | 1291.2 ± 0.99
320 K, 90164 kPa | 1340.7 ± 0.99
340.01 K, 4105 kPa | 453.16 ± 3.3
340.01 K, 5105.7 kPa | 489.49 ± 3.3
340.01 K, 6106.3 kPa | 520.38 ± 3.1
340.01 K, 7107 kPa | 547.59 ± 2.9
340.01 K, 8107.7 kPa | 572.12 ± 2.7
340.01 K, 9108.2 kPa | 594.57 ± 2.6
340.01 K, 10109 kPa | 615.36 ± 1.3
340.01 K, 12611 kPa | 661.83 ± 1.3
340.01 K, 15113 kPa | 702.48 ± 1.2
340.01 K, 17615 kPa | 738.94 ± 1.2
340.01 K, 20117 kPa | 772.18 ± 1.1
340.01 K, 25119 kPa | 831.39 ± 1.1
340.01 K, 30122 kPa | 883.53 ± 1
340.01 K, 35126 kPa | 930.45 ± 1
340.01 K, 40129 kPa | 973.32 ± 1
340.01 K, 45133 kPa | 1012.9 ± 0.99
340.01 K, 50136 kPa | 1049.9 ± 0.96
340.01 K, 60143 kPa | 1117.3 ± 0.97
340.01 K, 70150 kPa | 1178 ± 0.97
340.02 K, 80157 kPa | 1233.5 ± 0.96
340.02 K, 90164 kPa | 1284.8 ± 0.97
340.02 K, 100171 kPa | 1332.5 ± 0.99
360 K, 5105 kPa | 311.26 ± 3.7
360 K, 6105.7 kPa | 370.15 ± 3.9
360 K, 7106.5 kPa | 413.28 ± 3.3
360 K, 8107.1 kPa | 448.54 ± 3
360 K, 9107.8 kPa | 478.92 ± 2.8
360 K, 10109 kPa | 505.89 ± 1.3
360 K, 12610 kPa | 563.32 ± 1.3
360 K, 15112 kPa | 611.37 ± 1.2
360 K, 17614 kPa | 653.26 ± 1.1
360 K, 20116 kPa | 690.72 ± 1.1
360 K, 25119 kPa | 756.2 ± 1.1
360 K, 30122 kPa | 812.8 ± 1
360 K, 35127 kPa | 863.13 ± 0.99
360 K, 40130 kPa | 908.71 ± 0.98
360 K, 45134 kPa | 950.58 ± 0.96
360 K, 50137 kPa | 989.41 ± 0.93
360 K, 60144 kPa | 1059.9 ± 0.95
360 K, 70151 kPa | 1123 ± 0.94
360 K, 80158 kPa | 1180.4 ± 0.94
360 K, 90165 kPa | 1233.3 ± 0.94
360 K, 100172 kPa | 1282.4 ± 0.97
380 K, 7106.1 kPa | 268.33 ± 3.3
380 K, 7357.4 kPa | 283.48 ± 3.3
380 K, 7606.5 kPa | 297.29 ± 3.2
380 K, 7858.2 kPa | 310.32 ± 3.1
380 K, 8106.9 kPa | 322.34 ± 3.2
380 K, 9107.6 kPa | 364.56 ± 3.1
380 K, 10108 kPa | 399.84 ± 1.2
380 K, 12610 kPa | 470.55 ± 1.3
380 K, 15112 kPa | 526.72 ± 1.2
380 K, 17613 kPa | 574.26 ± 1.1
380 K, 20116 kPa | 615.93 ± 1
380 K, 25119 kPa | 687.43 ± 1
380 K, 30123 kPa | 748.22 ± 0.99
380 K, 35126 kPa | 801.68 ± 0.96
380 K, 40130 kPa | 849.74 ± 0.95
380 K, 45134 kPa | 893.62 ± 0.94
380 K, 50137 kPa | 934.15 ± 0.9
380 K, 60144 kPa | 1007.4 ± 0.92
380 K, 70152 kPa | 1072.6 ± 0.92
380 K, 80159 kPa | 1131.7 ± 0.92
380 K, 90166 kPa | 1186 ± 0.92
380 K, 100173 kPa | 1236.3 ± 0.95
400 K, 10108 kPa | 309.3 ± 1.1
400 K, 11109 kPa | 343.84 ± 1.2
400 K, 12110 kPa | 374.75 ± 1.2
400 K, 13110 kPa | 402.68 ± 1.1
400 K, 14111 kPa | 428.21 ± 1.2
400 K, 15111 kPa | 451.76 ± 1.1
400 K, 16111 kPa | 473.63 ± 0.99
400 K, 17110 kPa | 494.15 ± 1.1
400 K, 18112 kPa | 513.48 ± 1
400 K, 19112 kPa | 531.79 ± 1.1
400 K, 20113 kPa | 549.2 ± 0.97
400 K, 22615 kPa | 589.41 ± 1
400 K, 25117 kPa | 625.81 ± 0.93
400 K, 30121 kPa | 690.16 ± 0.95
400 K, 35124 kPa | 746.29 ± 0.93
400 K, 40128 kPa | 796.45 ± 0.92
400 K, 45132 kPa | 842.05 ± 0.91
400 K, 50135 kPa | 884.02 ± 0.87
400 K, 60142 kPa | 959.55 ± 0.89
400.01 K, 70148 kPa | 1026.5 ± 0.89
400.01 K, 80156 kPa | 1087 ± 0.89
400.01 K, 90163 kPa | 1142.6 ± 0.9
400.01 K, 100170 kPa | 1194 ± 0.92
420 K, 12107 kPa | 315 ± 0.91
420 K, 13108 kPa | 341.84 ± 0.96
420 K, 14109 kPa | 367.29 ± 0.97
420 K, 15110 kPa | 391.25 ± 0.98
420 K, 16110 kPa | 413.79 ± 0.98
420 K, 17113 kPa | 435.07 ± 0.97
420 K, 18114 kPa | 455.17 ± 0.97
420 K, 19115 kPa | 474.24 ± 0.96
420 K, 20116 kPa | 492.39 ± 0.93
420 K, 22618 kPa | 534.32 ± 0.94
420 K, 25120 kPa | 572.24 ± 0.9
420 K, 30123 kPa | 639.09 ± 0.91
420 K, 35127 kPa | 697.19 ± 0.9
420 K, 40130 kPa | 748.95 ± 0.88
420 K, 45134 kPa | 795.89 ± 0.88
420 K, 50138 kPa | 838.99 ± 0.85
420 K, 60145 kPa | 916.37 ± 0.87
420 K, 70152 kPa | 984.82 ± 0.87
420 K, 80159 kPa | 1046.6 ± 0.89
